Experimental data published in the supplement of paper PMC6045584.
± gives the standard deviation of the averaged measurements.

How the values were obtained:
[1] = compound: COc1ccc(-c2cc3c(C)nc(N)nc3n([C@H]3CC[C@H](OCCO)CC3)c2=O)cn1; experiment: surviving fraction relative to DMSO-only wells; higher = less growth inhibition; settings: exposure time: 5 days
Procedure, shortened: (§1)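 Viability values are CellTiter-Glo luminescence readings, given as surviving fraction against the median of DMSO-only wells. The readings were taken after 10 minutes at room temperature, following five days of continuous exposure to inhibitors at 0.5, 1, 5, 10, 50, 100, 500 and 1000 nM that began 24 hours after log-phase tumour cell lines were seeded at 250–500 cells per well in 384-well plates. Every line was screened three times and kept only if replicate Pearson r >0.7 and median Z' >0.3.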

BEZ-235 = compound: Cn1c(=O)n(-c2ccc(C(C)(C)C#N)cc2)c2c3cc(-c4cnc5ccccc5c4)ccc3ncc21 [BEZ-235]; experiment: as above; settings: exposure time: 5 days
Procedure, shortened: as §1

| Test System | surviving fraction ([1]; 0.5 nM) | surviving fraction ([1]; 1 nM) | surviving fraction ([1]; 5 nM) | surviving fraction ([1]; 10 nM) | surviving fraction ([1]; 50 nM) | surviving fraction ([1]; 100 nM) | surviving fraction ([1]; 500 nM) | surviving fraction ([1]; 1000 nM) | surviving fraction (BEZ-235; 0.5 nM) | surviving fraction (BEZ-235; 1 nM) | surviving fraction (BEZ-235; 5 nM) | surviving fraction (BEZ-235; 10 nM) | surviving fraction (BEZ-235; 50 nM) | surviving fraction (BEZ-235; 100 nM) | surviving fraction (BEZ-235; 500 nM) | surviving fraction (BEZ-235; 1000 nM) |
| --- | --- | --- | --- | --- | --- | --- | --- | --- | --- | --- | --- | --- | --- | --- | --- | --- |
| SUM149 BREAST | 1.02 ± 0.042 | 1.1 ± 0.1 | 0.963 ± 0.067 | 0.9127 ± 0.0085 | 0.697 ± 0.036 | 0.474 ± 0.03 | 0.161 ± 0.0021 | 0.0763 ± 0.0038 | 1.11 ± 0.11 | 1.15 ± 0.044 | 1.04 ± 0.018 | 1 ± 0.059 | 0.715 ± 0.04 | 0.587 ± 0.024 | 0.153 ± 0.0052 | 0.108 ± 0.011 |
| SUM149.B1*.S BREAST | 0.985 ± 0.03 | 1.02 ± 0.059 | 1.02 ± 0.032 | 0.995 ± 0.037 | 0.924 ± 0.011 | 0.823 ± 0.03 | 0.475 ± 0.014 | 0.339 ± 0.017 | 1.11 ± 0.041 | 1.12 ± 0.049 | 1.14 ± 0.038 | 1.12 ± 0.022 | 1.039 ± 0.0098 | 0.969 ± 0.072 | 0.376 ± 0.028 | 0.21 ± 0.0038 |
| SUM159 BREAST | 1.1 ± 0.16 | 1.12 ± 0.18 | 1.1 ± 0.17 | 1.1 ± 0.17 | 1.05 ± 0.074 | 0.839 ± 0.036 | 0.181 ± 0.014 | 0.119 ± 0.006 | 1.11 ± 0.11 | 1.11 ± 0.099 | 1.1 ± 0.065 | 1.09 ± 0.069 | 0.922 ± 0.062 | 0.635 ± 0.065 | 0.228 ± 0.014 | 0.168 ± 0.015 |
| SYO1 SYNOVIAL | 0.961 ± 0.013 | 0.912 ± 0.021 | 0.895 ± 0.061 | 0.825 ± 0.041 | 0.557 ± 0.0083 | 0.386 ± 0.035 | 0.118 ± 0.028 | 0.0698 ± 0.019 | 1.02 ± 0.036 | 0.973 ± 0.054 | 0.942 ± 0.065 | 0.96 ± 0.023 | 0.705 ± 0.04 | 0.457 ± 0.017 | 0.196 ± 0.011 | 0.117 ± 0.0081 |
| T47D BREAST | 0.993 ± 0.043 | 0.975 ± 0.021 | 0.959 ± 0.02 | 0.913 ± 0.013 | 0.638 ± 0.018 | 0.414 ± 0.022 | 0.196 ± 0.0079 | 0.148 ± 0.0018 | 1.07 ± 0.034 | 1.05 ± 0.015 | 1.04 ± 0.019 | 1.02 ± 0.016 | 0.89 ± 0.015 | 0.7209 ± 0.0056 | 0.47 ± 0.016 | 0.312 ± 0.0077 |
| U2OS BONE | 0.98 ± 0.036 | 1.02 ± 0.019 | 0.9927 ± 0.0096 | 0.92 ± 0.05 | 0.794 ± 0.044 | 0.693 ± 0.029 | 0.277 ± 0.0042 | 0.202 ± 0.0051 | 1.03 ± 0.049 | 1.058 ± 0.0092 | 1.06 ± 0.011 | 1.06 ± 0.013 | 0.9133 ± 0.0045 | 0.78 ± 0.038 | 0.293 ± 0.006 | 0.256 ± 0.013 |
| VCAP PROSTATE | 1.01 ± 0.05 | 1.08 ± 0.04 | 1.06 ± 0.14 | 0.983 ± 0.056 | 0.706 ± 0.027 | 0.52 ± 0.023 | 0.161 ± 0.013 | 0.0997 ± 0.016 | 1.08 ± 0.1 | 0.994 ± 0.09 | 1.12 ± 0.082 | 1.13 ± 0.12 | 0.902 ± 0.1 | 0.867 ± 0.056 | 0.422 ± 0.053 | 0.402 ± 0.0052 |
| VP229 BREAST | 1.13 ± 0.11 | 1.07 ± 0.062 | 0.948 ± 0.046 | 0.844 ± 0.032 | 0.513 ± 0.078 | 0.383 ± 0.071 | 0.135 ± 0.02 | 0.0757 ± 0.018 | 1.36 ± 0.32 | 1.22 ± 0.075 | 1.25 ± 0.089 | 1.04 ± 0.035 | 0.969 ± 0.094 | 0.751 ± 0.025 | 0.268 ± 0.008 | 0.159 ± 0.008 |
| YAMATO SYNOVIAL | 1.15 ± 0.087 | 1.09 ± 0.066 | 1.01 ± 0.073 | 0.952 ± 0.057 | 0.469 ± 0.062 | 0.355 ± 0.0076 | 0.189 ± 0.014 | 0.272 ± 0.012 | 1.28 ± 0.087 | 1.26 ± 0.12 | 1.34 ± 0.084 | 1.12 ± 0.048 | 0.923 ± 0.043 | 0.849 ± 0.12 | 0.47 ± 0.038 | 0.429 ± 0.016 |
| ZR751 BREAST | 1.13 ± 0.17 | 1.04 ± 0.15 | 0.783 ± 0.13 | 0.708 ± 0.11 | 0.328 ± 0.039 | 0.182 ± 0.038 | 0.091 ± 0.013 | 0.0693 ± 0.012 | 1.03 ± 0.1 | 1.03 ± 0.23 | 0.912 ± 0.12 | 0.907 ± 0.093 | 0.725 ± 0.063 | 0.519 ± 0.1 | 0.226 ± 0.011 | 0.176 ± 0.011 |
